Test system: U14 (mouse cervical cancer) homografts
Experiment: U14 homograft (syngeneic) growth inhibition in ICR mice
Assay type: in vivo
Conditions: ITE 200 mg/kg i.p. once daily
Experimental: All the procedures related to animal handling, care, and the treatment in the study were performed following guidelines of KeyGen Biotechn Co., Ltd. (Nanjing, China), a contract research organization we hired, based on the guidance of the Association for Assessment and Accreditation of Laboratory Animal Care (AAALAC). Animals were checked for any effects of tumor growth and drug treatment on normal behavior such as mobility, food and water consumption, body weight gain/loss (bodyweights were measured every two days), eye/hair matting, and any other abnormal effect. Death and observed clinical signs were recorded. Individual animals with a tumor volume exceeding 3,000 mm^3 or animals of a group with a mean tumor volume exceeding 2,000 mm^3 were euthanized. In addition, animals showing signs of severe distress and/or pain or losing the capability of accessing adequate food or water were humanely sacrificed.
Cell lines HCT116, Siha, MFC were cultured in DMEM medium (high glucose) supplemented with 10% fetal bovine serum (FBS), SW116 and T24 in RPMI-1640 medium with 10% FBS, M14 and A375 in DMEM medium (high glucose) with 10% calf serum (CS), SGC7901 and Ketr-3 in RPMI-1640 medium with 10% CS, and CFPAC-1 in IMDM medium with 10% FBS. All of the cells were cultured, in the presence of 100 U/ml penicillin and 100 μg/ml streptomycin, at 37° C. in an atmosphere of 5% CO2 in air. […] The cells growing in an exponential phase were harvested and counted for tumor inoculation. Cell lines 5180 and U14 were maintained in ascites (peritoneal cavity fluid) of mice and were harvested and counted for tumor inoculation. […]
Tumor volume was measured every two days in two dimensions using a caliper and the volume was calculated with a formula of: V=0.5 a×b^2, where a and b are the long and short diameter (in mm) of a tumor, respectively. […] The TGD was calculated as: TGD=T−C, where T was the time (in days) required for tumors in a drug treated group to reach a predetermined mean tumor volume and C the time (in days) in the control group to reach the same volume. […]

## COC(=O)c1csc(C(=O)c2c[nH]c3ccccc23)n1 [ITE, 2-(1′H-indole-3′-carbonyl)-thiazole-4-carboxylic acid methyl ester]
TGD at Vol. 2,000
  TGD: 3 days
TGI at day 6, TGI=(1−ΔT/ΔC)×100%
  TGI (%): 46%
End of therapy relative to beginning
  Weight Loss: 4%
